{"source": "patent US20220023317A1", "about": "“PREVENTING OR MITIGATING CHEMOTHERAPY INDUCED ALOPECIA USING VITAMIN D” (Berg LLC, priority 2013, published 2022)", "key": {"Long Evans Rats": {"tested_on": "Long Evans Rats", "assay": "Alopecia in chloroleukemic Long Evans rats receiving multi-course chemotherapy", "assay_type": "in vivo, rat", "conditions": "for extent of alopecia (grade): all rats", "source_text": "Animals were then randomized in four groups.\nTreatments were started on day 6 after birth.\nUnused preparations were disposed of."}, "[1]": {"tested_on": "female C57BL/6 adolescent mice", "conditions": "topical calcitriol; cited from earlier work"}, "[2]": {"tested_on": "EMT-6 murine breast tumor", "conditions": "male mice, topical calcitriol before i.p. cyclophosphamide; cited from earlier work"}, "NCI-ES-0808": {"tested_on": "NCI-ES-0808", "assay": "Cell growth / viability assay", "assay_type": "cell-based"}, "[3]": {"tested_on": "Long Evans and Sprague Dawley rats", "description": "Specifically, Long Evans and Sprague Dawley rats with pups were purchased from Harlan Laboratories, Inc. They were housed and fed according to applicable animal handling rules and regulations. Pups were allowed to acclimate for 48 hours prior to the start of experiments. […] Rats were isolated from their littermates and mother for 6-hour periods of time. Subsequently, the treated area was cleaned with soap and water and pups were returned to their litters. On day 13, rats either received etoposide (1.5 mg/kg daily for 3 days) or cyclophosphamide (CTX) (37.5 mg/kg once) or combination cyclophosphamide (35 mg/kg once) and doxorubicin (2.5 mg/kg daily for 3 days). All chemotherapies were purchased from Sigma and were given intraperitoneally (i.p.) in a total volume of 0.1 mL. Alopecia was recorded 10 days after the last dose of chemotherapy."}, "HepG2": {"tested_on": "HepG2", "assay": "Cell growth / viability assay", "assay_type": "cell-based"}, "[4]": {"tested_on": "Sprague-Dawley or Long Evans rats", "assay": "Second CIA study, calcitriol 1, 2 or 3 μg/mL", "assay_type": "in vivo, rat", "description": "CIA was administered topically at concentrations of 1, 2, or 3 μg/mL on Days 5 to 10 followed by administration of various chemotherapeutic agents (etoposide; cyclophosphamide; doxorubicin and cyclophosphamide; cytosine beta-D arabinofurosamine; cytosine beta-D arabinofurosamine and doxorubicin; and paclitaxel)."}, "PaCa2": {"tested_on": "PaCa2", "assay": "Cell growth / viability assay", "assay_type": "cell-based"}, "scalp hair follicles": {"tested_on": "scalp hair follicles", "assay": "Rat model, duration of calcitriol treatment before chemotherapy", "assay_type": "in vivo", "source_text": "While not wishing to be bound by any particular theory, it is believed that application of vitamin D to the scalp or any other area of skin having hair induces differentiation of hair follicles, which is required for the stage conversion of the hair from a growing anagen stage to an involuting catagen stage. […] In humans, a hair follicle of the scalp has a substantially longer anagen phase than that of animals. Indeed, at any time, at least 90% of hair follicles in a human scalp are in the anagen phase. It is believed that a short treatment duration is not sufficient to induce catagen stage in scalp hair follicles, which subsequently makes them more susceptible to cytotoxicity of chemotherapy. […] Continued application on a daily basis will ensure the maintenance of the catagen stage and extended protection throughout administration of multiple doses of a chemotherapeutic (e.g., taxane-containing) regimen."}, "Sprague Dawley rats": {"tested_on": "Sprague Dawley rats", "assay": "Neonatal rat model of CIA, 1,25(OH)2D3 in ethanol", "assay_type": "in vivo", "conditions": "0.2 μg in 150 μL ethanol topical, days 5-10; CTX 35 mg/kg; all 10 animals", "source_text": "Neonatal Rat model and PCA model. Sprague Dawley rats were purchased from Charles River Laboratories (Wilmington, Mass.). C3H/HeJ mouse were purchased from Jackson Laboratories (Bar Harbour, Me.).Rodents were housed and fed according to NIH guidelines. For experiments involving chemotherapy, cyclophosphamide was purchased from Mead Johnson (Evansville, Ind.) and Etoposide was obtained from Bristol-Myers (Evansville, Ind.). 1,25(OH)2D3 powder was a gift from Dr. Uskokovic (Hoffman-La Roche, Nutley, N.J.). For experiments involving C3H/HeJ mice, 1,25(OH)2D3 was purchased from Sigma (St. Louis, Mo.). Topical application of 1,25(OH)2D3. 1,25(OH)2D3 was dissolved in absolute ethanol and applied topically with an applicator. Control animals were similarly treated with vehicle only. […] For CIA experiments, 1,25(OH)2D3 was given daily beginning on day 5 after birth and ending on day 10. […] For CIA and PCA, the experimental group was treated with 0.2 μg of 1,25(OH)2D3 in 150 μL of absolute ethanol applied topically over the head and neck. In both instances, the control group received ethanol vehicle only. Cyclophosphamide (35 mg/kg) was given intraperitoneally for one day only. […] Both chemotherapies were started at 11 days of age. Alopecia was recorded on the tenth day after the first dose of chemotherapy."}, "HEKa cells": {"tested_on": "HEKa cells", "assay": "Pretreatment of cells with calcitriol before chemotherapy drugs", "assay_type": "cell-based, human", "description": "Then these pretreated cells were utilized to set up the cell based assay. […] Three commonly used chemotherapy drugs (doxorubicin, cisplatin and erlotinib) were selected to evaluate calcitriol treated cells. […] In these experiments, the commercial drugs were serially diluted, starting at a concentration 4-times higher than the final desired concentration for cell incubation. […] The assay was carried out according to the previously described method in order to provide consistency and allow direct comparison. The result was based upon measurement of the total number of viable cells. […] Thus, a topical application of calcitriol could be applied at the same time as the systemic delivery of the chemotherapy. A staged application is not required."}, "[5]": {"conditions": "0.1 μg/mL calcitriol for two passages"}, "[6]": {"conditions": "0.1 μg/mL calcitriol supplement"}}, "note": "Where two headings read alike, the source gives them in different places.", "data": [{"smiles": "C=C1/C(=C\\C=C2/CCC[C@]3(C)[C@@H]([C@H](C)CCCC(C)(C)O)CC[C@@H]23)C[C@@H](O)C[C@@H]1O", "note": "[Calcitriol, (1a.3B.5Z.7E)-9,10-secocholesta-5,7,10(19)-triene-1,3,25-triol]", "values": [{"measurement": "extent of alopecia (grade)", "setting": "Long Evans Rats; ADM + paclitaxel + etoposide, first round", "result": "did not exhibit any signs of alopecia"}, {"measurement": "rats with alopecia grade 0 (number)", "setting": "Long Evans Rats; ADM + paclitaxel + etoposide, second round, topical calcitriol, of 32", "result": 32}, {"measurement": "extent of alopecia (grade)", "setting": "Long Evans Rats; CTX + ADM + ARA-C, first round", "result": "did not exhibit any signs of alopecia"}, {"measurement": "rats with alopecia grade 0 (number)", "setting": "Long Evans Rats; CTX + ADM + ARA-C, second round, topical calcitriol, of 31", "result": 31}, {"measurement": "rats with alopecia grade 0 (number)", "setting": "Long Evans Rats; CTX + ADM + cytarabine (ARA-C), first round, topical calcitriol 2 μg/mL, of 40", "result": 40}, {"measurement": "extent of alopecia (grade)", "setting": "Long Evans Rats; CTX + ADM, first round", "result": "did not exhibit any signs of alopecia"}, {"measurement": "rats with alopecia grade 0 (number)", "setting": "Long Evans Rats; CTX + ADM, second round, topical calcitriol, of 20", "result": 20}, {"measurement": "rats with alopecia grade 0 (number)", "setting": "Long Evans Rats; CTX + doxorubicin (ADM), first round, topical calcitriol 2 μg/mL, of 40", "result": 40}, {"measurement": "extent of alopecia (grade)", "setting": "Long Evans Rats; CTX + paclitaxel + etoposide, first round", "result": "did not exhibit any signs of alopecia"}, {"measurement": "rats with alopecia grade 0 (number)", "setting": "Long Evans Rats; CTX + paclitaxel + etoposide, first round, topical calcitriol 2 μg/mL, of 40", "result": 40}, {"measurement": "rats with alopecia grade 0 (number)", "setting": "Long Evans Rats; CTX + paclitaxel + etoposide, second round, topical calcitriol, of 33", "result": 33}, {"measurement": "extent of alopecia (grade)", "setting": "Long Evans Rats; CTX, first round of chemotherapy", "result": "did not exhibit any signs of alopecia"}, {"measurement": "rats with alopecia grade 0 (number)", "setting": "Long Evans Rats; CTX, first round of chemotherapy, topical calcitriol 2 μg/mL 0.1 mL daily x6, 0 = no alopecia, of 40", "result": 40}, {"measurement": "rats with alopecia grade 0 (number)", "setting": "Long Evans Rats; CTX, second round of chemotherapy, topical calcitriol days 40-45, of 10", "result": 10}, {"measurement": "rats with alopecia grade 0 (number)", "setting": "Long Evans Rats; Doxorubicin (ADM) + paclitaxel + etoposide, first round, topical calcitriol 2 μg/mL, of 40", "result": 40}, {"measurement": "protection from CIA", "setting": "Long Evans Rats; calcitriol 2 μg/mL, each of five chemotherapy regimens, first and second cycles", "result": 100, "unit": "%"}, {"measurement": "protection from CIA", "setting": "Long Evans Rats; cyclophosphamide and doxorubicin group, both cycles", "result": 100, "unit": "%"}, {"measurement": "protection from CIA", "setting": "Long Evans Rats; cyclophosphamide group, both cycles", "result": 100, "unit": "%"}, {"measurement": "protection from CIA", "setting": "Long Evans Rats; cyclophosphamide, doxorubicin and cytarabine group, both cycles", "result": 100, "unit": "%"}, {"measurement": "protection from CIA", "setting": "Long Evans Rats; cyclophosphamide, paclitaxel and etoposide group, both cycles", "result": 100, "unit": "%"}, {"measurement": "protection from CIA", "setting": "Long Evans Rats; doxorubicin, paclitaxel and etoposide group, both cycles", "result": 100, "unit": "%"}, {"measurement": "prevention of cyclophosphamide-induced alopecia", "setting": "[1]", "result": "failed to demonstrate efficacy"}, {"measurement": "regrowth of pigmented hair shafts", "setting": "[1]", "result": "significantly accelerated, enhanced, and quantitatively improved"}, {"measurement": "rate of tumor growth vs either agent alone", "setting": "[2]", "result": "greater reduction in the rate of tumor growth"}, {"measurement": "effect of calcitriol on cell growth", "setting": "NCI-ES-0808", "result": "no significant growth promoting or growth inhibiting effects"}, {"measurement": "effect of calcitriol on cytotoxic effect of Doxorubicin", "setting": "NCI-ES-0808", "result": "did not appear to appreciably alter"}, {"measurement": "protection from etoposide-induced alopecia", "setting": "[3]; 0.1 μg of calcitriol topical for 6 hours, daily x6, etoposide 1.5 mg/kg x3", "result": "partial localized protection"}, {"measurement": "protection from cyclophosphamide-induced alopecia", "setting": "[3]; 0.3 μg calcitriol topical", "result": "full body protection"}, {"measurement": "protection from etoposide-induced alopecia", "setting": "[3]; 0.3 μg calcitriol topical", "result": "total body protection"}, {"measurement": "effect of calcitriol on cytotoxic effect of Doxorubicin", "setting": "HepG2", "result": "did not appear to appreciably alter"}, {"measurement": "response to doxorubicin, cisplatin, erlotinib after calcitriol exposure", "setting": "HepG2; [5]", "result": "did not alter"}, {"measurement": "5-FU ED50 curve with vs without calcitriol", "setting": "HepG2; [6]", "result": "not significantly different"}, {"measurement": "concentrations giving growth inhibition", "setting": "HepG2; high concentrations", "result": "> 0.5", "unit": "µg/mL"}, {"measurement": "concentrations giving growth stimulation", "setting": "HepG2; low concentrations", "result": "0.05 to 0.25", "unit": "µg/mL"}, {"measurement": "extent of hair growth", "setting": "[4]; 1 μg/mL", "result": "hair growth was limited to the treated area"}, {"measurement": "extent of hair growth", "setting": "[4]; 3 μg/mL", "result": "hair growth was also observed on the dorsal region"}, {"measurement": "protection against CIA", "setting": "[4]; 1 to 3 μg/mL applied for 6 hours, all chemotherapeutic agents tested", "result": 100, "unit": "%"}, {"measurement": "effect on cure rate with cyclophosphamide", "setting": "[4]; chloroleukemia induced with MIAC51", "result": "did not affect the cure rate"}, {"measurement": "protection from CIA, 6-hour exposure", "setting": "[4]; topical, Days 5 to 10", "result": "complete protection"}, {"measurement": "protection from CIA, 1.5 hour exposure", "setting": "[4]; topical, Days 5 to 10", "result": "no protection"}, {"measurement": "effect of calcitriol on cell growth", "setting": "PaCa2", "result": "no significant growth promoting or growth inhibiting effects"}, {"measurement": "effect of calcitriol on cytotoxic effect of Doxorubicin", "setting": "PaCa2", "result": "did not appear to appreciably alter"}, {"measurement": "response to doxorubicin, cisplatin, erlotinib after calcitriol exposure", "setting": "PaCa2; [5]", "result": "did not alter"}, {"measurement": "5-FU ED50 curve with vs without calcitriol", "setting": "PaCa2; [6]", "result": "not significantly different"}, {"measurement": "daily application before chemotherapy required to see any protective effect", "setting": "scalp hair follicles", "result": "at least four days"}, {"measurement": "protection with 5 days of application before chemotherapy", "setting": "scalp hair follicles; increasing protection up to one week", "result": "moderate protection"}, {"measurement": "protection from cyclophosphamide-induced alopecia", "setting": "Sprague Dawley rats", "result": "did not develop alopecia"}, {"measurement": "HEKa growth after prolonged calcitriol exposure", "setting": "HEKa cells; 0.1 μg/mL calcitriol, two cell passages", "result": "stopped growing"}, {"measurement": "chemoprotection, pre-treatment group vs simultaneous treatment group", "setting": "HEKa cells; 0.1 μg/mL, doxorubicin, cisplatin, erlotinib", "result": "nearly identical"}]}]}
